Experimental findings from USRE47221E1, “Tricyclic compounds” (AbbVie Inc., priority 2009, dated 2019) are described below.

The target of this assay is T1, Jak3 (Homo sapiens, UniProt P52333).
T1 construct: Jak3 enzyme (aa 811-1103); expressed in SF9 cells as a GST fusion; GST; made in house; host or cells: SF9 insect cells
T1 sequence (P52333 811-1103): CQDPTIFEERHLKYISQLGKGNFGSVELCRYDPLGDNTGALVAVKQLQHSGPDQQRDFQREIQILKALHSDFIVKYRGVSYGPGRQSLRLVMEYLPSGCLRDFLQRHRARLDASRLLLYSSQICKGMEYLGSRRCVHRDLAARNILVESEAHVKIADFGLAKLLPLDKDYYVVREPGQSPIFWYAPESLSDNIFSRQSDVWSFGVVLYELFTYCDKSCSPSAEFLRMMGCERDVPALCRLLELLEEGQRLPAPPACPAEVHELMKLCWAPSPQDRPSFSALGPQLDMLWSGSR
The experiment in a line: Jak3 enzyme data for selected compounds. The class given is biochemical.
Take `CC[C@H]1C[C@@H](NS(=O)(=O)CCC(F)(F)F)C[C@H]1c1cnc2cnc3[nH]ccc3n12` (single isomer, unassigned) [AA.1.76, N-(3-ethyl-4-(3H-imidazo[1,2-a]pyrrolo[2,3-e]pyrazin-8-yl)cyclopentyl)-3,3,3-trifluoropropane-1-sulfonamide]: the IC50 – broadly, the midpoint of a concentration-inhibition curve – was greater than 1000 nM.

Turning to `CC[C@@H]1C[C@H](NS(=O)(=O)CCC(F)(F)F)C[C@@H]1c1cnc2cnc3[nH]ccc3n12` (single isomer, unassigned) [AA.1.77, N-(3-ethyl-4-(3H-imidazo[1,2-a]pyrrolo[2,3-e]pyrazin-8-yl)cyclopentyl)-3,3,3-trifluoropropane-1-sulfonamide], the IC50 was less than 100 nM.

The molecule `CC[C@@H]1C[C@H](NS(=O)(=O)N2CC(F)(F)C2)C[C@@H]1c1cnc2cnc3[nH]ccc3n12` (single isomer, unassigned) [AA.1.79, N-(3-ethyl-4-(3H-imidazo[1,2-a]pyrrolo[2,3-e]pyrazin-8-yl)cyclopentyl)-3,3-difluoroazetidine-1-sulfonamide] registered an IC50 of less than 100 nM.

`CC[C@@H]1C[C@H](OCC2CC2)C[C@@H]1c1nnc2cnc3[nH]ccc3n12` (single isomer, unassigned) [AA.1.80, 1-(4-(cyclopropylmethoxy)-2-ethylcyclopentyl)-6H-pyrrolo[2,3-e][1,2,4]triazolo[4,3-a]pyrazine] showed an IC50 greater than 1000 nM.

Molecule `C[C@@H]1C[C@H](NS(=O)(=O)NCCO)C[C@@H]1c1cnc2cnc3[nH]ccc3n12` (single isomer, unassigned) [AA.1.81] registered an IC50 of less than 100 nM.

Take `CC[C@@H]1C[C@@H](OCC2CC2)C[C@@H]1c1nnc2cnc3[nH]ccc3n12` (single isomer, unassigned) [AA.1.90, 1-(4-(cyclopropylmethoxy)-2-ethylcyclopentyl)-6H-pyrrolo[2,3-e][1,2,4]triazolo[4,3-a]pyrazine]: the IC50 lay within 100 to 1000 nM.

In turn, `CC[C@@H]1C[C@@H](OC2CCOCC2)C[C@@H]1c1nnc2cnc3[nH]ccc3n12` (single isomer, unassigned) [AA.1.91, 1-(2-ethyl-4-(tetrahydro-2H-pyran-4-yloxy)cyclopentyl)-6H-pyrrolo[2,3-e][1,2,4]triazolo[4,3-a]pyrazine] registered an IC50 of 100 to 1000 nM.

With `CC[C@@H]1C[C@H](NS(=O)(=O)c2ccc(F)c(Cl)c2)C[C@@H]1c1cnc2cnc3[nH]ccc3n12` (single isomer, unassigned) [AA.1.92, 3-chloro-N-(3-ethyl-4-(3H-imidazo[1,2-a]pyrrolo[2,3-e]pyrazin-8-yl)cyclopentyl)-4-fluorobenzenesulfonamide], the IC50 is less than 100 nM.

In turn, `C[C@H]1C[C@H](Oc2ccc(C#N)cc2)C[C@H]1c1nnc2cnc3[nH]ccc3n12` (single isomer, unassigned) [AA.1.93, 4-(3-methyl-4-(6H-pyrrolo[2,3-e][1,2,4]triazolo[4,3-a]pyrazin-1-yl)cyclopentyloxy)benzonitril] gave an IC50 greater than 1000 nM.

The molecule `C[C@H]1C[C@H](Oc2ccc(C#N)cc2)C[C@@H]1c1nnc2cnc3[nH]ccc3n12` (single isomer, unassigned) [AA.1.94, 4-(3-methyl-4-(6H-pyrrolo[2,3-e][1,2,4]triazolo[4,3-a]pyrazin-1-yl)cyclopentyloxy)benzonitrile] gave an IC50 of 100 to 1000 nM.

Take `CC[C@@H]1C[C@@H](Oc2ccc(C(F)(F)F)cn2)C[C@@H]1c1nnc2cnc3[nH]ccc3n12` (single isomer, unassigned) [AA.1.95, 1-(2-ethyl-4-(5-(trifluoromethyl)pyridin-2-yloxy)cyclopentyl)-6H-pyrrolo[2,3-e][1,2,4]triazolo[4,3-a]pyrazine]: the IC50 is greater than 1000 nM.

`CC[C@H]1C[C@H](Oc2ccc(C(F)(F)F)cn2)C[C@H]1c1nnc2cnc3[nH]ccc3n12` (single isomer, unassigned) [AA.1.96, 1-(2-ethyl-4-(5-(trifluoromethyl)pyridin-2-yloxy)cyclopentyl)-6H-pyrrolo[2,3-e][1,2,4]triazolo[4,3-a]pyrazine] displayed an IC50 greater than 1000 nM.
